In patent US4357344A, “Polybutylbenzylphenols and benzyl-3,4-methylenedioxybenzenes in insect population control” (The United States of America as represented by the …, priority 1979, dated 1982):

Experiments:
Assay type in all cases: in vivo
flies (family Muscidae) [1] = experiment: Anti-procreant comparison tests (sexual sterility or oviposition inhibition); settings: for inducing sexual sterility or inhibiting oviposition: comparison tests, Examples 6-9; for activity in the method of the invention (ineffective compounds): general statement of the description
Description: (§1) The compound to be tested was administered in a standard fly food containing 6 parts of sugar, 6 parts of powdered non-fat dry milk, and 1 part of powdered egg yolk. Treated food was prepared by mixing an appropriate amount of a solution or suspension of CBCP in acetone with a batch of the food. The acetone was evaporated (4-6 hours) and the dry material was repulverized.
Oviposition inhibition tests: Samples of treated food with a container of water were placed in cages containing 100 newly-emerged adult flies (family Muscidae). After the flies had been exposed to the treated diet for 6-7 days, 1/2 inch of moist standard fly larva-rearing medium (CSMA) in souffle cups was placed in the cages for oviposition. After 4-6 hours, the cup was removed and examined for eggs. If no eggs were laid, the medium was offered again at intervals of 1 or 2 days until it had been offered three times or the flies had oviposited.
(§2) Chemosterilancy tests: If eggs were laid in the above tests, the cups were filled with water and stirred to break up the egg masses. A random sample of 100 eggs from each cup was collected and placed on a small piece of black cloth which was then laid on top of moist larva-rearing medium in a rearing container. Observations were made to determine percentage of egg hatch and pupal development.
These flies were maintained on untreated fly food. After 5 days, cups containing the larval-rearing medium was provided as previously described and a 100-egg sample was collected and place on moist larve-rearing medium. About a week after oviposition, examination was made to determine the percentage of hatched eggs and of pupae developed.
For purpose of comparison the above-described tests were applied to 2-benzyl-4-t-butylphenol and 2-(α-methylbenzyl)-4-t-butylphenol.
For purposes of comparison the above-described tests were applied to 2,6-di-t-butyl-4-(4-methoxybenzyl) phenol and 2,6-di-t-butyl-4-(α-methyl-4-methoxybenzyl)phenol, both compounds being ineffective in inducing sexual sterility or in inhibiting oviposition.
For purposes of comparison the following compounds were tested and found to be ineffective in inducing sexual sterility or in inhibiting oviposition: 2-(4-methoxybenzyl)-3,4-methylenedioxyphenol, (α-methylbenzyl)-3,4-methylenedioxy-6-methoxybenzene, (α,α-dimethylbenzyl)-3,4-methylenedioxy-6-methoxybenzene, (α,α-dimethylbenzyl)-3,4-methylenedioxy-6-ethoxybenzene, (α,α-dimethylbenzyl)-3,4-methylenedioxy-6-n-propoxybenzene, (α,α-dimethylbenzyl)-3,4-methylenedioxy-6-n-butoxybenzene, (α,α-dimethylbenzyl)-3,4-methylenedioxy-6-n-pentoxybenzene, (α-vinylbenzyl)-3,4-methylenedioxy-6-methoxybenzene, (α-vinylbenzyl)-3,4-methylenedioxy-6-ethoxybenzene, (α-vinylbenzyl)-3,4-methylenedioxy-6-n-propoxybenzene.

flies (family Muscidae) [2] = experiment: Oviposition inhibition tests (treated fly food; Examples 6-9)
Description: The compound to be tested was administered in a standard fly food containing 6 parts of sugar, 6 parts of powdered non-fat dry milk, and 1 part of powdered egg yolk. Treated food was prepared by mixing an appropriate amount of a solution or suspension of CBCP in acetone with a batch of the food. The acetone was evaporated (4-6 hours) and the dry material was repulverized. Oviposition inhibition tests: Samples of treated food with a container of water were placed in cages containing 100 newly-emerged adult flies (family Muscidae). After the flies had been exposed to the treated diet for 6-7 days, 1/2 inch of moist standard fly larva-rearing medium (CSMA) in souffle cups was placed in the cages for oviposition. After 4-6 hours, the cup was removed and examined for eggs. […] The procedure outlined in Example 6 was followed using a Group II compound. The procedure outlined in Example 6 was followed using Group III compounds. The results are summarized below: The procedure outlined in Example 6 was followed substituting a Group IV compound for those of Group I. The table below provides a summary of results.

flies (family Muscidae) [3] = experiment: Chemosterilancy tests (egg hatch and pupal development; Examples 6-9)
Description: as §1, §2
The procedure outlined in Example 6 was followed using a Group II compound.
The procedure outlined in Example 6 was followed using Group III compounds. The results are summarized below:
The procedure outlined in Example 6 was followed substituting a Group IV compound for those of Group I. The table below provides a summary of results.

[4] = system: early fourth-stage larvae of the common malaria mosquito (Anopheles quadrimaculatus); experiment: Growth-inhibition tests on mosquito larvae; settings: in water; corrected by Abbott's formula
Description: The compound to be tested was added to one liter of water until the final concentration thereof was a growth-inhibiting amount. Fifty early fourth-stage larvae of the common malaria mosquito (Anopheles quadrimaculatus) were placed on this water. Larval food was administered daily. Dead larvae and pupae were removed, counted, and discarded daily. Live pupae were removed, rinsed, and transferred to a cup of distilled water. The cup was placed in an emergence cage, and the emerging adults, if any, were maintained on a sugar-water diet.
The effectiveness of the compound in inhibiting growth was determined by adding the number of dead larvae and pupae and the number of adults that were dead, unable to complete eclosion, and malformed. This sum was corrected by Abbott's formula (to adjust for the number of larvae or pupae which would die naturally) and designated as the GI (growth inhibition). The results are expressed as GI-90, i.e., the concentration of growth inhibitor in ppm that would prevent and/or retard growth in 90% of the treated larvae.

Compound: CCCCOc1cc2c(cc1C(C)(C)c1ccccc1)OCO2 [AA, (α, 60 -Dimethylbenzyl)-3,4-methylenedioxy-6-n-butoxybenzene]
- inducing sexual sterility or inhibiting oviposition (flies (family Muscidae) [1]): ineffective

Compound: CC(c1ccccc1)c1cc(C(C)(C)C)ccc1O (stereo not drawn) [2-(α-methylbenzyl)-4-t-butylphenol, reference compound]
- inducing sexual sterility or inhibiting oviposition (flies (family Muscidae) [1]): ineffective
- activity in the method of the invention (ineffective compounds) (flies (family Muscidae) [1]): ineffective

Compound: (α,α-Dimethylbenzyl)-3,4-methylenedioxy-6-methoxybenzene
- inducing sexual sterility or inhibiting oviposition (flies (family Muscidae) [1]): ineffective

Compound: CC(C)(C)c1ccc(O)c(Cc2ccccc2)c1 [2-benzyl-4-t-butylphenol, reference compound]
- inducing sexual sterility or inhibiting oviposition (flies (family Muscidae) [1]): ineffective
- activity in the method of the invention (ineffective compounds) (flies (family Muscidae) [1]): ineffective

Compound: CC(C)(C)c1cc(C(C)(C)c2ccccc2)cc(C(C)(C)C)c1O [4-(α,α-dimethylbenzyl)-2,6-di-t-butylphenol, reference compound]
- activity in the method of the invention (ineffective compounds) (flies (family Muscidae) [1]): ineffective

Compound: CCCCOc1cc2c(cc1Cc1ccc(OC)cc1)OCO2 [P, (4-Methoxybenzyl)-3,4-methylenedioxy-6-n-butoxybenzene]
- Mortality, parent generation (flies (family Muscidae) [2]; 0.05% in food): 0%
- Mortality, parent generation (flies (family Muscidae) [2]; 0.1% in food): 0%
- Mortality, parent generation (flies (family Muscidae) [2]; 0.25% in food): 0%
- Mortality, parent generation (flies (family Muscidae) [2]; 0.5% in food): 0%
- Egg hatch (flies (family Muscidae) [3]; 0.05% in food): 36%
- Pupal development (flies (family Muscidae) [3]; 0.05% in food): 36%
- Egg hatch (flies (family Muscidae) [3]; 0.1% in food): 10%
- Pupal development (flies (family Muscidae) [3]; 0.1% in food): 10%
- Egg hatch (flies (family Muscidae) [3]; 0.25% in food): 0%
- Pupal development (flies (family Muscidae) [3]; 0.25% in food): 0%
- Egg hatch (flies (family Muscidae) [3]; 0.5% in food): 0%
- Pupal development (flies (family Muscidae) [3]; 0.5% in food): 0%
- GI-90 (concentration of growth inhibitor that would prevent and/or retard growth in 90% of the treated larvae) [4]: 0.047 ppm

Compound: CCCc1cc2c(cc1Cc1ccc(OC)cc1)OCO2 [DD, (4-Methoxybenzyl)-3,4-methylenedioxy-6-n-propylbenzene]
- Mortality, parent generation (flies (family Muscidae) [2]; 0.025% in food): 0%
- Mortality, parent generation (flies (family Muscidae) [2]; 0.05% in food): 0%
- Mortality, parent generation (flies (family Muscidae) [2]; 0.1% in food): 0%
- Mortality, parent generation (flies (family Muscidae) [2]; 0.25% in food): 0%
- Egg hatch (flies (family Muscidae) [3]; 0.025% in food): 7%
- Pupal development (flies (family Muscidae) [3]; 0.025% in food): 7%
- Egg hatch (flies (family Muscidae) [3]; 0.05% in food): 0%
- Pupal development (flies (family Muscidae) [3]; 0.05% in food): 0%
- Egg hatch (flies (family Muscidae) [3]; 0.1% in food): 0%
- Pupal development (flies (family Muscidae) [3]; 0.1% in food): 0%
- GI-90 (concentration of growth inhibitor that would prevent and/or retard growth in 90% of the treated larvae) [4]: 0.2 ppm

Compound: COc1ccc(Cc2cc3c(cc2O)OCO3)cc1 [6-(4-methoxybenzyl)-3,4-methylenedioxyphenol, reference compound]
- activity in the method of the invention (ineffective compounds) (flies (family Muscidae) [1]): ineffective
